Test results reported in patent US9186361B2, “Compounds and compositions for the treatment of parasitic diseases” (Novartis AG, priority 2013, dated 2015).

Tests used:
Assay type in all cases: cell-based
[1] = tested on: Leishmania donovani axenic amastigote parasites; assay: Assay for Leishmania proliferation in vitro (axenic amastigotes, Cell TiterGlo); conditions: 48 h, 2 day incubation, read-out: L. donovani amastigotes EC50
Procedure: Leishmania donovani axenic amastigote parasites are grown at 37° C., 5% CO2 in media made of RPMI 1640, 4 mM L-glutamine, 20% heat inactivated FBS, 100 units/ml of penicillin and 100 μg/ml of streptomycin, 23 μM Folic Acid, 100 μM Adenosine, 22 mM D-glucose, 25 mM MES. The pH of media is adjusted to 5.5 at 37° C. using HCl. 20 μL of media is first dispensed into 384 well plates and […] of the compounds of invention in DMSO are added to the plate wells. At the same time control compounds and DMSO are added to plates to serve as the positive and negative controls, respectively. 40 μL of parasite culture (9600 parasites) are then added to the plate wells. The plates are then placed into incubators. After 2 day incubation, 20 μL of Cell TiterGlo (Promega) is added to the plate wells. The luminescence signal of each well is measured using the Envision reader (Perkin Elmer). The percentage inhibition of 50%, EC50, is calculated for each of the compounds.

[2] = tested on: L. donovani HU3 strain in mouse peritoneal macrophages; assay: Proliferation of L. donovani in mouse peritoneal macrophages (SybrGreen, high-content imaging); conditions: Leishmania donovani, Peritoneal macrophage, 120 h; infected mouse peritoneal macrophages, 5 days; read-out: L. donavani Macrophage EC50
Text: The activity of a compound according to the present invention for inhibition of parasitemai can be assessed by the parasite proliferation assay. The assay measures the increase in the parasite number in the assayed plate well using a DNA intercalating dye, SYBR Green I® dye (INVITROGEN) to stain Leishmania cell nuclei. It is understood that the assays illustrate the invention without in any way limiting the scope of the invention.
L. donovani HU3 strain is propagated by infecting BALBc mice through tail vein injection with 10^7 Leishmania parasites. Infected mice are allowed to develop infection during 9-11 weeks post-infection. During this time, the parasites accumulate in the infected mouse spleens to large numbers, and the infected mice serve as the source of parasites for the in vitro measurement of compound efficacies. To assay a compound for anti-leishmanial activity, peritoneal macrophages isolated from non-infected BALBc mice are seeded into 384-well plates at density 2×10^4 macrophages per well in 25 mL of medium (RPMI1640, 10% fetal serum albumin, 10 mM HEPES, 1 mM sodium pyruvate, 1% Pen/Strep). Subsequently, the seeded plates are placed into an incubator set to maintain 37° C. temperature and atmosphere with 5% CO2. The next day, Leishmania parasites are isolated from the spleens of mice infected for 9-11 weeks and 4×10^5 isolated parasites in […] of the above media are added to each plate well. Plates are then returned into incubators and infection is allowed to proceed for 24 hours. After the infection of macrophages is completed, […] of compounds of the invention in the above medium, which also contains 5% DMSO, are added to plate wells containing infected macrophages. At the same time control compounds (miltefosine and amphotericin B) and DMSO are added to plates to serve as the positive and negative controls, respectively. After the compound addition, the plates are returned into incubator and cells infected with parasites are cultured for 5 days. At the end of cultivation, […] of 8% paraformaldehyde is added to plate wells and incubated for 15 min at room temperature. Following the incubation, the paraformaldehyde from plate wells is aspirated, and […] of PBS containing 0.2% Triton X-100 is added to wells. After 15 min incubation, the solution is aspirated from wells again, and replaced with SybrGreen Dye solution in PBS (1:125,000 dilution). Infected cells are imaged with Evotec Opera high-content microscope, and the number of parasites in well is determined by counting parasite nuclei visualized by staining with SybrGreen dye. The percentage inhibition of 50%, EC50, is calculated for each compound.
The inhibitory efficacy of the compounds of the invention against proliferation of L. donovani in mouse peritoneal macrophages is provided in Table I.

[3] = tested on: Trypanosoma cruzi amastigotes cultured in 3T3 fibroblast cells; assay: Assay for proliferation of kinetoplastid parasite Trypanosoma cruzi (beta-galactosidase/CPRG readout); conditions: NIH3T3, 144 h, Tulahuen strain in 3T3 cells, 6 day incubation, read-out: T cruzi EC50
Text: Compounds of the invention can be assayed to measure their capacity to inhibit proliferation of kinetoplastid parasite Trypanosoma cruzi. The screening procedure is for identifying compounds with inhibitor activity against Trypanosoma cruzi amastigotes cultured in 3T3 fibroblast cells. The assay is done using the mammalian stage (amastigotes) of T. cruzi that replicates in the intracellular space of host cells. The host cells are initially infected with the culture-derived trypomastigotes that rapidly invade and then divide as amastigotes. The protocol uses the Tulahuen strain of T. cruzi that has been engineered to express the E. coli beta-galactosidase gene (Lac-Z) (Antimicr. Agents Chemoth. 40:2592, 1996). This allows for a colorimetric readout by using the substrate CPRG and an absorbance plate reader.
3T3 fibroblast cells are re-suspended in RPMI-1640 medium without phenol red medium supplemented with 10% FBS (heat inactivated), 100 μg/ml penicillin, and 100 μg/ml streptomycin. Forty μL of suspension (1,000 cells) is dispensed into 384-well plates and incubated overnight at 37° C. temperature and in atmosphere containing 5% CO2. The following day, 100 nL of compounds of the invention in DMSO are added to plate wells containing 3T3 cells. At the same time control compounds (benznidazole and nifurtimox) and DMSO are added to plates to serve as the positive and negative controls, respectively. After that, 10 μL of media containing 10,000 T. cruzi trypomastigotes are added to each plate well and plates are placed back into incubators. After 6 day incubation, 10 μL of reagent solution (0.6 mM CPRG, 0.6% NP-40 in PBS) is added to plates and incubated at room temperature for 2 hours. Absorbance is then measured on SpectraMax Gemini fluorimeter to determine relative number of T. cruzi cells present in each plate well. The percentage inhibition of 50%, EC50, is calculated for each compound.

SMILES | EC50 [1] [µM] | EC50 [2] [µM] | EC50 [3] [µM]
Cc1nc(C)c(C(=O)Nc2cnc3nc(-c4cc(NC(=O)c5ccco5)ccc4Cl)[nH]c3c2)s1 [Example 5, N-{2-[2-chloro-5-(furan-2-amido)phenyl]-1H-imidazo[4,5-b]pyridin-6-yl}-2,4-dimethyl-1,3-thiazole-5-carboxamide] | 0.57 | > 50 | 1.86
CC(C)OC(=O)Nc1cnc2nc(-c3cc(NC(=O)c4ccco4)ccc3Cl)n(C(=O)OC(C)C)c2c1 [Example 7, propan-2-yl 2-[2-chloro-5-(furan-2-amido)phenyl]-6-{[(propan-2-yloxy)carbonyl]amino}-1H-imidazo[4,5-b]pyridine-1-carboxylate] | 0.64 | 1.35 | 0.147
O=C(Nc1ccc(Cl)c(-c2nc3ncc([N+](=O)[O-])cc3[nH]2)c1)c1ccco1 [Example 8, N-(4-chloro-3-{6-nitro-1H-imidazo[4,5-b]pyridin-2-yl}phenyl)furan-2-carboxamide] | 0.96 | 12.4 | 1.02
CC(C)C(=O)Nc1cnc2nc(-c3cc(NC(=O)c4ccco4)ccc3Cl)[nH]c2c1 [Example 10, N-{4-chloro-3-[6-(2-methylpropanamido)-1H-imidazo[4,5-b]pyridin-2-yl]phenyl}furan-2-carboxamide] | 1.17 | 2.29 | 3.7
CNc1cnc2nc(-c3cc(NC(=O)c4ccco4)ccc3Cl)[nH]c2c1 [Example 11, N-{4-chloro-3-[6-(methylamino)-1H-imidazo[4,5-b]pyridin-2-yl]phenyl}furan-2-carboxamide] | 1.84 | 16.6 | 1.27
O=C(Nc1ccc(Cl)c(-c2nc3ncc(NC(=O)N4CCCC4)cc3[nH]2)c1)c1ccco1 [Example 12, N-{2-[2-chloro-5-(furan-2-amido)phenyl]-1H-imidazo[4,5-b]pyridin-6-yl}pyrrolidine-1-carboxamide] | 2.34 | > 26.1 | 11
CC(C)CC(=O)Nc1cnc2nc(-c3cc(NC(=O)c4ccco4)ccc3Cl)[nH]c2c1 [Example 14, N-{4-chloro-3-[6-(3-methylbutanamido)-1H-imidazo[4,5-b]pyridin-2-yl]phenyl}furan-2-carboxamide] | 4.5 | 3.3 | 3.3
CC(C)(C)OC(=O)NCCOC(=O)Nc1cnc2nc(-c3cc(NC(=O)c4ccco4)ccc3Cl)[nH]c2c1 [Example 16, tert-butyl N-{2-[({2-[2-chloro-5-(furan-2-amido)phenyl]-1H-imidazo[4,5-b]pyridin-6-yl}carbamoyl)oxy]ethyl}carbamate] | 5.7 | 10.1 | 4
COCCC(=O)Nc1cnc2nc(-c3cc(NC(=O)c4ccco4)ccc3Cl)[nH]c2c1 [Example 19, N-{4-chloro-3-[6-(3-methoxypropanamido)-1H-imidazo[4,5-b]pyridin-2-yl]phenyl}furan-2-carboxamide] | 13.3 | 25.5 | > 20
CC(C)NC(=O)Nc1cnc2nc(-c3cc(NC(=O)c4ccco4)ccc3Cl)[nH]c2c1 [Example 24, N-[4-chloro-3-(6-{[(propan-2-yl)carbamoyl]amino}-1H-imidazo[4,5-b]pyridin-2-yl)phenyl]furan-2-carboxamide] | 23.2 | > 39.2 | > 20
O=C(CCO)Nc1cnc2nc(-c3cc(NC(=O)c4ccco4)ccc3Cl)[nH]c2c1 [Example 25, N-{4-chloro-3-[6-(3-hydroxypropanamido)-1H-imidazo[4,5-b]pyridin-2-yl]phenyl}furan-2-carboxamide] | 23.2 | > 50 | > 20
O=C(Nc1ccc(Cl)c(-c2nc3ncc(NCc4cccnc4O)cc3[nH]2)c1)c1ccco1 [Example 30] | > 25 | > 50 | > 20
